Active and inactive are the calls of the source. Cut-off read from the data, not from the text of the source, for most assays here: actives have a measured Kd and inactives only a lower limit.
What was measured:
[1] = biological target: T1, Serine/threonine-protein kinase ICK (Homo sapiens, UniProt Q9UPZ9)
T1 sequence (Q9UPZ9 whole entry): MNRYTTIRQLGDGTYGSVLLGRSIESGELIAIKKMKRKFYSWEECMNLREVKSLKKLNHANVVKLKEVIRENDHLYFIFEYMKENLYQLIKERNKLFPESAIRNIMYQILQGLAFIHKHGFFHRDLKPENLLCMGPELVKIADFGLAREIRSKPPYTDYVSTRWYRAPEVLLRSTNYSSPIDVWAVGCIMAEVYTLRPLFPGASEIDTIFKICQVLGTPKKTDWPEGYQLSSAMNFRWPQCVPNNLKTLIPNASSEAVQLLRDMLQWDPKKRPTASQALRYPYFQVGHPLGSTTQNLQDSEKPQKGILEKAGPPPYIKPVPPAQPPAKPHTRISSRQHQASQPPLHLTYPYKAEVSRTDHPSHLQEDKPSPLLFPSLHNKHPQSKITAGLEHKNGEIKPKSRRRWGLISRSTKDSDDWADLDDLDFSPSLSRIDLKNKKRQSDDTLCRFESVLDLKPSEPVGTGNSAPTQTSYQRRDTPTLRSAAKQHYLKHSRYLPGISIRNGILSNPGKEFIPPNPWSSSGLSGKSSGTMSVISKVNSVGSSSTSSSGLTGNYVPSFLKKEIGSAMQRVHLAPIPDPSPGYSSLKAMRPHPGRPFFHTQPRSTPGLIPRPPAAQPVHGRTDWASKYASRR

[2] = biological target: T2, Aurora kinase A (Homo sapiens, UniProt O14965)
T2 sequence (O14965 whole entry): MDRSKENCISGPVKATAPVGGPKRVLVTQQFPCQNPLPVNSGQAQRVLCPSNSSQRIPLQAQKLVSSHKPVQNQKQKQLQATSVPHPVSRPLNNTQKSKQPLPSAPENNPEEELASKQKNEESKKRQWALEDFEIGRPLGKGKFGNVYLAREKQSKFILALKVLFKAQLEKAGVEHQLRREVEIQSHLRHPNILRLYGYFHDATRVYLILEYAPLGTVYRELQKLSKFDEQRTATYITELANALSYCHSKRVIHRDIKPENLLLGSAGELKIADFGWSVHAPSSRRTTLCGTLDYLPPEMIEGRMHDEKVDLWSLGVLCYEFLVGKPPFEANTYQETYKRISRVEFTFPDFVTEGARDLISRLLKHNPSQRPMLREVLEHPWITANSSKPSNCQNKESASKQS

[3] = biological target: T3, Mitogen-activated protein kinase kinase kinase 5 (Homo sapiens, UniProt Q99683)
T3 sequence (Q99683 whole entry): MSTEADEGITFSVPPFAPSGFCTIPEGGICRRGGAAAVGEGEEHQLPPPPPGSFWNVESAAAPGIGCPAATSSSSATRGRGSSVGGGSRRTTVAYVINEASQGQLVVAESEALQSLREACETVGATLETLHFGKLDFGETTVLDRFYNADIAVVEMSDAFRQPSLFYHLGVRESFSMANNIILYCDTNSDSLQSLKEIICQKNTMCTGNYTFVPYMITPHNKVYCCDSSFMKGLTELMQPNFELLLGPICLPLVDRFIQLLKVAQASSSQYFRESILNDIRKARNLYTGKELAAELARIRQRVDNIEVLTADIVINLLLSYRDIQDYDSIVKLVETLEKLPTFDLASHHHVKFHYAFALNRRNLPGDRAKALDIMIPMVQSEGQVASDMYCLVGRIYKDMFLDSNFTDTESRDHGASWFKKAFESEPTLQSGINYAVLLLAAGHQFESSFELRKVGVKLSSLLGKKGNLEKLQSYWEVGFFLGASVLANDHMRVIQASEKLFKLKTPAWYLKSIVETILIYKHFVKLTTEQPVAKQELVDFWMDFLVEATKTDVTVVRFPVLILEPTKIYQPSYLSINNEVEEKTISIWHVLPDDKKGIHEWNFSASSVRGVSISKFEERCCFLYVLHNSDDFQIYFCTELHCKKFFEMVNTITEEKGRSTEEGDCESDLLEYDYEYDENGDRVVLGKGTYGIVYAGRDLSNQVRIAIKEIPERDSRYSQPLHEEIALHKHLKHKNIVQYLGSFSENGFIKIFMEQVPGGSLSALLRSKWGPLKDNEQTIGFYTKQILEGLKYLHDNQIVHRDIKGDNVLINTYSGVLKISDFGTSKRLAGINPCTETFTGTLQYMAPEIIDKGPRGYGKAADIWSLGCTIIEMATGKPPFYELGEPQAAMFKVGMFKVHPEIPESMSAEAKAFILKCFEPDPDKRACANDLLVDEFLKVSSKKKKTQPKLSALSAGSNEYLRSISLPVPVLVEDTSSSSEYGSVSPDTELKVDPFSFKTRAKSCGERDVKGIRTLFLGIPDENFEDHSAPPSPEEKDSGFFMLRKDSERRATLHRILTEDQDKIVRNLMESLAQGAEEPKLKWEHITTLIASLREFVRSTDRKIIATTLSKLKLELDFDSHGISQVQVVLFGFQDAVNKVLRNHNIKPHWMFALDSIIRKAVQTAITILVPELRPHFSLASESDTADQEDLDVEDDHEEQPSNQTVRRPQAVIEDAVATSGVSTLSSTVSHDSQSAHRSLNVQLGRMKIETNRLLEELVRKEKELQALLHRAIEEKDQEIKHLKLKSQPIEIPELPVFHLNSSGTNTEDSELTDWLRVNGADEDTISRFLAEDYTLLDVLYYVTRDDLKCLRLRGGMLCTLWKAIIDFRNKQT
Note: in the data inactive means no Kd found up to 30 µM.

Kd [1] | Kd [2] | Kd [3] | SMILES
> 30 µM (inactive) | > 30 µM (inactive) | > 30 µM (inactive) | N[C@@H]1CCCN(c2c(/C=C3\SC(=O)NC3=O)cccc2-c2ccccc2)C1
> 30 µM (inactive) | > 30 µM (inactive) | > 30 µM (inactive) | Cc1ccc(S(=O)(=O)Nc2nc3ccccc3nc2Nc2ccc3nsnc3c2)cc1
> 30 µM (inactive) | > 30 µM (inactive) | > 30 µM (inactive) | CCN1CCN(Cc2ccc(-c3cc4c(N[C@H](C)c5ccccc5)ncnc4[nH]3)cc2)CC1 [AEE-788]
– | > 30 µM (inactive) | > 30 µM (inactive) | Cn1ncc(Cl)c1-c1cc(C(=O)N[C@H](CN)Cc2cccc(F)c2)sc1Cl [AFURESERTIB]
> 30 µM (inactive) | > 30 µM (inactive) | > 30 µM (inactive) | COc1cc(N2CCC(N3CCN(C)CC3)CC2)ccc1Nc1ncnc(Nc2ccccc2S(=O)(=O)C(C)C)n1 [ASP-3026]
> 30 µM (inactive) | > 30 µM (inactive) | > 30 µM (inactive) | CNS(=O)(=O)Nc1nccc(Cc2c(C)c3ccc(Oc4ncccn4)cc3oc2=O)c1F [AVUTOMETINIB]
> 30 µM (inactive) | – | > 30 µM (inactive) | COc1cc(CCc2cc(NC(=O)c3ccc(N4C[C@@H](C)N[C@@H](C)C4)cc3)n[nH]2)cc(OC)c1 [AZD-4547]
> 30 µM (inactive) | > 30 µM (inactive) | > 30 µM (inactive) | Cc1cc([C@@H](C)Nc2ccccc2C(=O)O)c2nc(N3CCOCC3)cc(=O)n2c1 [AZD-6482]
> 30 µM (inactive) | > 30 µM (inactive) | > 30 µM (inactive) | COc1ccc(-c2ccc3c(N4CCOC[C@@H]4C)nc(N4CCOC[C@@H]4C)nc3n2)cc1CO [AZD-8055]
> 30 µM (inactive) | > 30 µM (inactive) | > 30 µM (inactive) | C[C@@H](Nc1cc(F)cc(F)c1)c1cc(C(=O)N(C)C)cc2c(=O)cc(N3CCOCC3)oc12 [AZD-8186]
> 30 µM (inactive) | > 30 µM (inactive) | > 30 µM (inactive) | Cc1ccc(NC(=O)c2ccc(CN3CC[C@H](N(C)C)C3)c(C(F)(F)F)c2)cc1Nc1nccc(-c2cncnc2)n1 [BAFETINIB]
> 30 µM (inactive) | > 30 µM (inactive) | > 30 µM (inactive) | CCS(=O)(=O)N1CC(CC#N)(n2cc(-c3ncnc4[nH]ccc34)cn2)C1 [BARICITINIB]
> 30 µM (inactive) | > 30 µM (inactive) | > 30 µM (inactive) | Cc1cc2c(F)c(Oc3ncnn4cc(OC[C@@H](C)OC(=O)[C@H](C)N)c(C)c34)ccc2[nH]1 [BRIVANIB ALANINATE]
> 30 µM (inactive) | > 30 µM (inactive) | > 30 µM (inactive) | CNC(=O)c1ccc(-c2cnc3ncc(Cc4ccc5ncccc5c4)n3n2)cc1F [CAPMATINIB]
0.271 µM (active) | – | > 30 µM (inactive) | CCc1cnn2c(NCc3ccc[n+]([O-])c3)cc(N3CCCC[C@H]3CCO)nc12 [DINACICLIB]
> 30 µM (inactive) | > 30 µM (inactive) | > 30 µM (inactive) | COC(=O)N[C@@H](C)CNc1nccc(-c2cn(C(C)C)nc2-c2cc(Cl)cc(NS(C)(=O)=O)c2F)n1 [ENCORAFENIB]
> 30 µM (inactive) | – | > 30 µM (inactive) | Cc1cc(Nc2cc(N3CCN(C)CC3)nc(/C=C/c3ccccc3)n2)n[nH]1 [ENMD-2076]
– | > 30 µM (inactive) | > 30 µM (inactive) | CO[C@H]1C[C@@H]2CC[C@@H](C)[C@@](O)(O2)C(=O)C(=O)N2CCCC[C@H]2C(=O)O[C@H]([C@H](C)C[C@@H]2CC[C@@H](OCCO)[C@H](OC)C2)CC(=O)[C@H](C)/C=C(\C)[C@@H](O)[C@@H](OC)C(=O)[C@H](C)C[C@H](C)/C=C/C=C/C=C/1C [EVEROLIMUS]
> 30 µM (inactive) | > 30 µM (inactive) | > 30 µM (inactive) | COCCNCc1ccc(-c2cc3nccc(Oc4ccc(NC(=S)NC(=O)Cc5ccc(F)cc5)cc4F)c3s2)nc1 [GLESATINIB]
> 30 µM (inactive) | > 30 µM (inactive) | > 30 µM (inactive) | O=C1NC(=O)/C(=C/c2ccc3nccc(-c4ccncc4)c3c2)S1 [GSK-1059615]
> 30 µM (inactive) | > 30 µM (inactive) | > 30 µM (inactive) | CC[C@H](Nc1ncnc2[nH]cnc12)c1nc2cccc(F)c2c(=O)n1-c1ccccc1 [IDELALISIB]
> 30 µM (inactive) | > 30 µM (inactive) | > 30 µM (inactive) | Cn1cc(-c2ccc3nnc(C(F)(F)c4ccc5ncccc5c4)n3n2)cn1 [JNJ-38877605]
> 30 µM (inactive) | – | > 30 µM (inactive) | COc1cc2nccc(Oc3ccc(NC(=O)NC4CC4)c(Cl)c3)c2cc1C(N)=O [LENVATINIB]
> 30 µM (inactive) | > 30 µM (inactive) | > 30 µM (inactive) | Cc1c(F)cc(C(=O)NC2CC2)cc1-c1ccc(C(=O)NCC(C)(C)C)cn1 [LOSMAPIMOD]
> 30 µM (inactive) | > 30 µM (inactive) | > 30 µM (inactive) | Cn1cc(-c2ccc(F)c(C(F)(F)F)c2)nc1C1CCN(c2ncnc3[nH]ncc23)CC1 [LY-2584702]
> 30 µM (inactive) | – | > 30 µM (inactive) | O=C(O)[C@]1(Cc2cccc(Nc3nccs3)n2)CC[C@@H](Oc2cccc(Cl)c2F)CC1 [MK-5108]
0.27 µM (active) | > 30 µM (inactive) | > 30 µM (inactive) | C1=C/COCc2cc(ccc2OCCN2CCCC2)Nc2nccc(n2)-c2cccc(c2)COC/1 [PACRITINIB]
> 30 µM (inactive) | – | > 30 µM (inactive) | OCCn1cc(-c2cnc3nnn(Cc4ccc5ncccc5c4)c3n2)cn1 [PF-04217903]

SMILES | Kd [1] | Kd [2] | Kd [3]
CN1CC[C@@H](c2c(O)cc(O)c3c(=O)cc(-c4ccccc4Cl)oc23)[C@@H]1CO | 0.892 µM (active) | > 30 µM (inactive) | > 30 µM (inactive)
Cc1cc(-c2cc(O)ccc2Cl)cc2nnc(Nc3ccc(OCCN4CCCC4)cc3)nc12 | > 30 µM (inactive) | > 30 µM (inactive) | > 30 µM (inactive)
O=C(c1ccc(F)c(F)c1Nc1ccc(I)cc1F)N1CC(O)([C@@H]2CCCCN2)C1 [COBIMETINIB] | > 30 µM (inactive) | > 30 µM (inactive) | > 30 µM (inactive)
COC(=O)[C@@]1(O)C[C@H]2O[C@]1(C)n1c3ccccc3c3c4c(c5c6ccccc6n2c5c31)C(=O)NC4 [K-252A] | > 30 µM (inactive) | 0.02 µM (active) | 0.182 µM (active)
Cc1ccc(-n2nc(C(C)(C)C)cc2NC(=O)NCc2cc(F)ccc2Oc2ccc3c(cnn3CCO)c2)cc1 [PEXMETINIB] | > 30 µM (inactive) | > 30 µM (inactive) | > 30 µM (inactive)
O=C(Nc1cccc(Cl)c1)Nc1ncc(CCNc2ncnc3ccsc23)s1 [SNS-314] | > 30 µM (inactive) | – | > 30 µM (inactive)
